Like-named read-outs stand apart in the source and are kept apart here.
Key:
ROCK1 = ROCK1 (Homo sapiens (Human), UniProt Q13464); experiment: Z-Lyte FRET kinase assay, ROCK1; assay type: biochemical
Source text: (§1) Kinase Assay. A robust FRET-based, enzyme-coupled assay format, Z-Lyte® Kinase Assay Ser/[…] Peptide Kit (Invitrogen, cat. PV3793), was employed in this study to monitor inhibition of ROCK1 (Invitrogen, cat. PV3691) and ROCK2 (Invitrogen, cat. PV3759) enzyme activities. […] The substrate contains both coumarin and fluorescein and only uncleaved […] substrate will undergo FRET. […] A known inhibitor, Y-27632 (Tocris Bioscience, cat. 1254), is used as a control compound.

ROCK2 [1] = target: T1, ROCK2 (Homo sapiens (Human), UniProt O75116); experiment: Z-Lyte FRET kinase assay, ROCK2; assay type: biochemical
Source text: as §1

[2] = tested on: phosphorylation of MLC2 (ROCK substrate) in MDA-MB-231 cells; experiment: Western blot of MLC2 phosphorylation in MDA-MB-231 breast cancer cells; assay type: cell-based, human; settings: 1 hr, MDA-MB-231, FIG. 4
Experimental: Western Blot Analysis. MDA-MB-468, MDA-MB-231, MCF-7, DU-145, H460, A549, HT29 and HCT116 cells (ATCC, Rockville, Md., USA) were plated in 6-well tissue culture plate. The cells were then treated next day with different concentrations of the RKIs for 1 h. After incubation, the cells were harvested, lysed, quantified and blotted for P-MLC2 (Cat no. 3671S), total-MLC2 (Cat no. 3672S), P-MEK (S298) (Cat no. 9128S), total-MEK (Cat no. 9122S), P-S6 (Cat no. 2155S), total-S6 (2217S), P-Erk (Cat no. 9101L), total Erk (Cat no. 9102L), P-Akt (Cat no. 9271L), total Akt (Cat no. 9272L) (Cell Signaling, Danvers, Mass., USA) and tubulin (Cat no. 5168) (Sigma, St Louis, Mo., USA) antibodies as described by us previously

Aurora-A = Aurora-A (Homo sapiens (Human), UniProt O14965); experiment: Aurora-A inhibition (selectivity); assay type: biochemical; settings: FIG. 2
ROCK2 [3] = target: T1, ROCK2; settings: Feng et al. 2008; read-out: ROCK2 enzymatic activity IC50 (reported); cited from earlier work
ROCK2 [4] = target: T1, ROCK2; settings: different assay conditions; read-out: ROCK 2 IC50 (previously reported); cited from earlier work
MDA-MB-231 cells [5] = experiment: Soft agar anchorage-independent growth assay; assay type: cell-based, human
Experimental: Soft Agar Assay. MDA-MB-231 cells were seeded in a 12-well tissue culture plate at 1200 cells per well in regular growth media and 0.3% agar. The cells were treated with different doses of RKI-11 and RKI-18, allowed to grow for 4 weeks, after which the colonies were stained overnight with 1 mg/ml MTT and counted.

NIH 3T3 cells = experiment: Cell morphology assay (phalloidin staining) in starved NIH 3T3 cells; assay type: cell-based; set-up: dose or concentration left out as unconfirmed; settings: starved NIH 3T3, FIG. 6
Experimental: Cell Morphology Assay. NIH 3T3 cells were plated at 8000 cells per well in 8-chamber slide in serum-free media (serum starvation) for 24 h. After serum starvation, the cells were treated with vehicle or the RKIs for 1 h. After treatment, the cells were stimulated with […] LPA, 200 ng/ml bradykinin or 30 ng/ml PDGF for 30 min. After stimulation, the cells were fixed with 4% paraformaldehyde, permeabilized using 0.1% Triton X-100 and stained with Texas-Red phalloidin (Cat no. T7471) (Invitrogen, Eugene, Oreg., USA) and DAPI (40,6 diamidino-2-phenylindole: counterstains DNA) (Cat no. H-1200; Vector Laboratories, Burlingame, Calif., USA). The cells were imaged using Zeiss Upright Fluorescence Microscope.

MDA-MB-231 cells [6] = experiment: Matrigel Transwell invasion assay; assay type: cell-based, human; settings: for inhibition of invasion (figure legend): FIG. 8
Experimental: Invasion Assay. Invasion assay was performed in Corning Transwell inserts coated with Matrigel. MDA-MB-231 cells were seeded at 3.5_105 and allowed to grow overnight in a 6-well plate. The cells were treated with either vehicle or different doses of RKIs for 24 h. After treatment, the cells were trypsinized, resuspended and plated in the inserts. The bottom chamber contained 20% FBS as the ‘chemoattractant’. The cells were kept in the incubator for 48 h. After incubation, the cells were stained and membrane was quantified.

MDA-MB-231 cells [7] = experiment: Wound-healing scratch migration assay; assay type: cell-based, human; settings: for inhibition of migration (wound-healing scratch assay): FIG. 8a
Experimental: Wound-Healing-Migration Assay. MDA-MB-231 cells were seeded at 4_105 cells per well in a 6-well plate and allowed to grow overnight at 37 1C and 5% CO2. The cells were starved for 24 h and scratched. The cells were then treated with different concentrations of RKIs in regular growth media for 24 h. Images of the scratch were acquired at 0 h and 24 h.

MDA-MB-231 cells [8] = experiment: MTT assay, anchorage-dependent proliferation; assay type: cell-based, human
Experimental: MTT Assay. MTT assay was performed to determine the effects of RKIs on anchoragedependent cell proliferation. Briefly, cells were plated in a 96-well tissue culture plate (1200 cells per well) and incubated for 24 h. After incubation, the cells were treated with vehicle or increasing concentrations of RKI-11 or RKI-18 ([…]). After 72 h incubation, freshly prepared MTT (2 mg/ml) was added to each well and incubated for 3 h. After incubation, the plates were read at 540 nm.

MDA-MB-231 cells [9] = experiment: Apoptosis by caspase 3 activation and PARP cleavage; assay type: cell-based, human; settings: up to 30 mM (so in the source)

Sequence of ROCK1 (Q13464 whole entry): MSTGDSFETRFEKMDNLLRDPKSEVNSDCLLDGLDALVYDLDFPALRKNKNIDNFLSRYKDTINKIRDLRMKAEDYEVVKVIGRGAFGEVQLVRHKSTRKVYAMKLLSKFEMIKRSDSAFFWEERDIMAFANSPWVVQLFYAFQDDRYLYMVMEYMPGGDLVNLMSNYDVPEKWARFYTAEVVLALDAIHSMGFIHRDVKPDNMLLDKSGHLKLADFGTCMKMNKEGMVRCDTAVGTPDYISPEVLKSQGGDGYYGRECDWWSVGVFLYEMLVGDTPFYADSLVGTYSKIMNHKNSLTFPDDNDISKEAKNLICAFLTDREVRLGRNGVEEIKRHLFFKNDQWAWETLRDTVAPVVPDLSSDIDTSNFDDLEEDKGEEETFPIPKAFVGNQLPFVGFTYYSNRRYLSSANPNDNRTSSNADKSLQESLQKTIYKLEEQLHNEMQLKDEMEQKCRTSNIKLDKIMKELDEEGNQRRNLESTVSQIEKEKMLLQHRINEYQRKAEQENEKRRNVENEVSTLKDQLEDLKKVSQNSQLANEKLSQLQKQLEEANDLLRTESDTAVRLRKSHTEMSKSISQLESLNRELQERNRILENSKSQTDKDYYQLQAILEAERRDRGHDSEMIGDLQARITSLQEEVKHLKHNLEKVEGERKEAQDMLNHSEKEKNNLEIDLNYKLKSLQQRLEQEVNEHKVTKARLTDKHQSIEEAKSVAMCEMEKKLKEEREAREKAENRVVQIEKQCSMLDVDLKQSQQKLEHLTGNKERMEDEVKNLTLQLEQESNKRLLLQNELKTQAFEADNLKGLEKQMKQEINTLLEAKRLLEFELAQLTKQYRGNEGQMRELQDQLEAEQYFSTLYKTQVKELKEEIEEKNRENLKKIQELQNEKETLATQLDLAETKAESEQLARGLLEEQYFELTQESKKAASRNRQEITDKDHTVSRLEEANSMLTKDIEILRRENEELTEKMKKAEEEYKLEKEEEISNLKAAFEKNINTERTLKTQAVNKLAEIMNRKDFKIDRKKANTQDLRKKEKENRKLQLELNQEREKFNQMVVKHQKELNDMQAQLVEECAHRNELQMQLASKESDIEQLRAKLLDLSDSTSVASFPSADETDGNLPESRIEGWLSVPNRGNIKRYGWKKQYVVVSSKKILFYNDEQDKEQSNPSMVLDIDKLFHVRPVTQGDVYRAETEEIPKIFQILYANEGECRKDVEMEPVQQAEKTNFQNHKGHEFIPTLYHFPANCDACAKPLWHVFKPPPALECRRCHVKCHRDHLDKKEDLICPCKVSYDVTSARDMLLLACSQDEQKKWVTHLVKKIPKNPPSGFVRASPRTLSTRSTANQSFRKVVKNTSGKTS
T1 sequence (O75116 whole entry, species assumed): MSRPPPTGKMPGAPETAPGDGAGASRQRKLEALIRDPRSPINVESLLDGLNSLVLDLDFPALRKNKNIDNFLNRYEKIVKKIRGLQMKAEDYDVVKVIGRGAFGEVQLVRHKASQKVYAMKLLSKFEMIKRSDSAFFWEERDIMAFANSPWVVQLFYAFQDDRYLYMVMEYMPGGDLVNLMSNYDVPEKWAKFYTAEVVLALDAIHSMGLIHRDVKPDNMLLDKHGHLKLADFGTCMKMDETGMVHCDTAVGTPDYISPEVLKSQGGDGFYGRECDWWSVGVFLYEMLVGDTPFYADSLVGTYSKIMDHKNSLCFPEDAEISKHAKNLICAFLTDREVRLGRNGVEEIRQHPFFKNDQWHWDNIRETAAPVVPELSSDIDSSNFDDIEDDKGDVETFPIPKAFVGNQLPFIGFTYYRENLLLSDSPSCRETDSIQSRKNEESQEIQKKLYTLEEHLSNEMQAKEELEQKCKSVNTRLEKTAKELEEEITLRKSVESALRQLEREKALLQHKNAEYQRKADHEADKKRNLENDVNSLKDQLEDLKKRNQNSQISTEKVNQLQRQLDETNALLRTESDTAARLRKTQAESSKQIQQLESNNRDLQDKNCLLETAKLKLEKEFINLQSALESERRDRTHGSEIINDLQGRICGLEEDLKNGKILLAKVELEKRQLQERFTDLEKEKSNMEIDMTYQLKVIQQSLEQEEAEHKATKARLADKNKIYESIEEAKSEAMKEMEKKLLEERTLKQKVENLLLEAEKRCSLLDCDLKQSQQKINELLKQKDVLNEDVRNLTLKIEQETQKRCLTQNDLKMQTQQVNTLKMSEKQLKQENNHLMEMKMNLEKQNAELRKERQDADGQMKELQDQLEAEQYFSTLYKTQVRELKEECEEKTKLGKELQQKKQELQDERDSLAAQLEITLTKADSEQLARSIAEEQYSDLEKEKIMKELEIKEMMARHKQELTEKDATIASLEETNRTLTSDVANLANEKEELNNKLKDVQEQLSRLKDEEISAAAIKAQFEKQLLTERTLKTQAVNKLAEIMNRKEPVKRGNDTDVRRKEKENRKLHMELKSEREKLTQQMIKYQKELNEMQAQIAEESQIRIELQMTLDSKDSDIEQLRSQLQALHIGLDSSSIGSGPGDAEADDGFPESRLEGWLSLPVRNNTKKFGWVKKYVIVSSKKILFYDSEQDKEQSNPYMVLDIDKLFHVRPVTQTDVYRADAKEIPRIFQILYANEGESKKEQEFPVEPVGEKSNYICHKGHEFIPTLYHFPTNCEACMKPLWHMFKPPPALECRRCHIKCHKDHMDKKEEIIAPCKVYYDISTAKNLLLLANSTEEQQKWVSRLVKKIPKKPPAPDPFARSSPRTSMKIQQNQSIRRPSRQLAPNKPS
Sequence of Aurora-A (O14965 whole entry): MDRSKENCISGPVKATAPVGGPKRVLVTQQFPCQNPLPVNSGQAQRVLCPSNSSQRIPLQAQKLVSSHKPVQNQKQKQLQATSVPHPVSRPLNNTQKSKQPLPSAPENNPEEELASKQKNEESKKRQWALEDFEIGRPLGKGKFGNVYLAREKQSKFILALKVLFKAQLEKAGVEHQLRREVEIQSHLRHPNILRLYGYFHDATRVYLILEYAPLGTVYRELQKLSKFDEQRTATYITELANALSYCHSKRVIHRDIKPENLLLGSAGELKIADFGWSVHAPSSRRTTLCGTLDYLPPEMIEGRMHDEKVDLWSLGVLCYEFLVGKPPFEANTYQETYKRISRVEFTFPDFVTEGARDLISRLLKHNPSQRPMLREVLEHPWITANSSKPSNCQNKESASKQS

IC50 (ROCK1; triplicate experiments) [nM] | IC50 (ROCK2 [1]; triplicate experiments) [nM] | Structure (SMILES) | further results
21500 ± 7300 | 7500 ± 1700 | CN(CCc1ccccc1)C(=O)Nc1ccc2[nH]ncc2c1 [Compound 13, 3-(1H-Indazol-5-yl)-1-methyl-1-phenethylurea] | 
72500 ± 6800 | 221000 ± 25700 | O=C(Nc1ccncc1)c1cnccc1Cl [Compound 4, 4-Chloro-N-(pyridin-4-yl)nicotinamide] | 
2600 ± 600 | 800 ± 300 | COc1ccc(CCNC(=O)Nc2ccc3[nH]ncc3c2)cc1 [Compound 16, 1-(1H-Indazol-5-yl)-3-(4-methoxyphenethyl)urea] | 
1410 | 5360 | O=C(Nc1ccc(-c2ccncc2)cc1)N[C@@H](CO)Cc1ccccc1 [Compound 26, (R)-1-(1-Hydroxy-3-phenylpropan-2-yl)-3-(4-(pyridin-4-yl)phenyl)urea] | 
14000 | 5500 ± 3100 | O=C(NCc1ccccc1)Nc1ccc2[nH]ncc2c1 [Compound 12, 1-Benzyl-3-(1H-indazol-5-yl)urea] | IC50 (ROCK2 [4]): 260 nM
2200 ± 1000 | 1100 ± 300 | O=C(NCCc1ccc(Cl)cc1)Nc1ccc2[nH]ncc2c1 [Compound 17, 1-(4-Chlorophenethyl)-3-(1H-indazol-5-yl)urea] | 
4600 ± 2100 | 2300 ± 600 | O=C(Nc1ccc2[nH]ncc2c1)N[C@H](CO)Cc1ccccc1 [Compound 14, (S)-1-(1-Hydroxy-3-phenylpropan-2-yl)-3-(1H-indazol-5-yl)urea] | 
2610 ± 410 | 19800 ± 3290 | O=C(NCCc1ccccc1)Nc1ccc(-c2ccncc2)cc1 [Compound 25, 1-Phenethyl-3-(4-(pyridin-4-yl)phenyl)urea] | 

The remaining lines, values behind:

Structure (SMILES) | IC50 (ROCK1; triplicate experiments) [nM] | IC50 (ROCK2 [1]; triplicate experiments) [nM] | further results
O=C(Nc1ccncc1)c1cccnc1 [Compound 3, N-(Pyridin-4-yl)nicotinamide] | 75500 | 55900 ± 11300 | 
O=C(Nc1ccc(-c2ccncc2)cc1)N[C@H](CO)Cc1ccccc1 [Compound 27, (S)-1-(1-Hydroxy-3-phenylpropan-2-yl)-3-(4-(pyridin-4-yl)phenyl)urea] | 31000 ± 10500 | 32900 ± 4670 | 
O=C(Nc1ccc(-c2ccncc2)cc1)N[C@H](CO)c1ccccc1 [Compound 24, (S)-1-(2-Hydroxy-1-phenylethyl)-3-(4-(pyridin-4-yl)phenyl)urea] | 1700 | 100 | LE (Ligand Efficiency), ROCK1 (ROCK1): 0.31; fold difference for ROCK1 (ROCK1; 24 (S) versus 23 (R)): five fold; LE (Ligand Efficiency), ROCK2 (ROCK2 [1]): 0.38; fold more kinase inhibitory activity for ROCK 2 (ROCK2 [1]; 24 (S) versus 23 (R)): 75 fold; P-MLC2 levels ([2]; 1 μM): greatly decreased; P-MLC2 levels ([2]; 10 μM): greatly decreased
O=C(NCCCc1ccccc1)Nc1ccc2[nH]ncc2c1 [Compound 19, 1-(1H-indazol-5-yl)-3-(3-phenylpropyl)urea] | 2460 ± 550 | 1070 | 
O=C(NCC(O)c1ccccc1)Nc1ccc2[nH]ncc2c1 (stereo not shown) [Compound 15, 1-(2-Hydroxy-2-phenylethyl)-3-(1H-indazol-5-yl)urea] | 2900 ± 800 |  | IC50 (ROCK2 [1]): 1500 ± 400 nM
Nc1ccc2[nH]ncc2c1 [Compound 8, 5-Aminoindazole] |  |  | IC50 (ROCK1): 181000 nM; IC50 (ROCK2 [1]): 120000 nM
O=C(Nc1nc(-c2ccncc2)cs1)C1COc2ccccc2O1 (stereo not shown) [CID5056270, reference compound] |  |  | IC50 (Aurora-A): > 100 µM; IC50 (ROCK1; values in nM): 13 nM; IC50 (ROCK2 [3]): < 3 nM; IC50 (ROCK2 [1]; values in nM): 0.56 nM
O=C(Nc1ccncc1)c1cncc(Br)c1 [Compound 5, 5-Bromo-N-(pyridin-4-yl)nicotinamide] | 270000 ± 51000 | 357000 ± 35300 | 
CC(=O)Nc1ccc2[nH]ncc2c1 [N-(1H-indazole-5-yl)acetamide] | 65000 | 40000 | 
O=C(NCc1ccccc1)Nc1ccc(-c2ccncc2)cc1 [Compound 22, 1-Benzyl-3-(4-(pyridin-4-yl)phenyl)urea] | 1150 | 260 | 
O=C(Nc1ccccc1)Nc1ccc2[nH]ncc2c1 [Compound 11, 1-(1H-Indazol-5-yl)-3-phenylurea] | 157000 | 62000 | effect on anchorage independent growth (MDA-MB-231 cells [5]; at 60 mM (so in the source)): little effect; LPA-induced stress fiber formation (NIH 3T3 cells): not; bradykinin-induced filopodia formation (NIH 3T3 cells): not; inhibition of invasion (figure legend) (MDA-MB-231 cells [6]): not; effect on cell invasion (MDA-MB-231 cells [6]; at 60 mM (so in the source), FIG. 8b): no effect; inhibition of migration (wound-healing scratch assay) (MDA-MB-231 cells [7]; at 60 mM (so in the source)): did not inhibit
O=C(NCCc1ccccc1)Nc1ccc2[nH]ncc2c1 [Compound 18, 1-(1H-Indazol-5-yl)-3-phenethylurea] |  |  | IC50 (MDA-MB-231 cells [8]; Homo sapiens, MDA-MB-231, 72 h, unit given as mM): 0.032 mM; potency at anchorage-dependent proliferation compared to anchorage-independent growth (MDA-MB-231 cells [8]; MDA-MB-231): four-fold less potent; inhibition of anchorage-independent growth (figure legend) (MDA-MB-231 cells [5]; MDA-MB-231, FIG. 7): inhibits; LPA-induced stress fiber formation (NIH 3T3 cells; listed as RKI-18): inhibits; PDGF-induced lamelipodia formation (NIH 3T3 cells; listed as RKI-18): inhibits; bradykinin-induced filopodia formation (NIH 3T3 cells; listed as RKI-18): inhibits; inhibition of invasion (figure legend) (MDA-MB-231 cells [6]): inhibits; inhibition of migration (figure legend) (MDA-MB-231 cells [7]; FIG. 8): inhibits; inhibition of migration (wound-healing scratch assay) (MDA-MB-231 cells [7]; concentration-dependent manner starting at 3 mM (so in the source)): inhibited the migration; P-MLC2 levels ([2]; 10 μM): greatly decreased; induction of apoptosis (caspase 3 activation and PARP cleavage) (MDA-MB-231 cells [9]): did not induce apoptosis
CN(C)C(=O)Nc1ccc2[nH]ncc2c1 [Compound 10, 3-(1H-Indazol-5-yl)-1,1-dimethylurea] | 59000 | 36100 ± 5900 | 
O=C(Nc1ccc(-c2ccncc2)cc1)N[C@@H](CO)c1ccccc1 [Compound 23, (R)-1-(2-Hydroxy-1-phenylethyl)-3-(4-(pyridin-4-yl)phenyl)urea] | 9000 | 8000 | LE (Ligand Efficiency), ROCK1 (ROCK1): 0.28; LE (Ligand Efficiency), ROCK2 (ROCK2 [1]): 0.28; IC50 (ROCK2 [1]; values in nM): 7520 nM; P-MLC2 levels ([2]; 1 μM): no effect; P-MLC2 levels ([2]; 10 μM): less potent than 24
